Read-outs that look alike come from different tables or passages of the source.
What was measured:
[1] = tested on: Aurantiochytrium sp. HS399
Procedure: Cultures of Aurantiochytrium sp. […] 100 mL volume cultures were prepared in 250 mL flasks, and cultured at a pH of 7.0, temperature of 27° C., a shaking frequency of 180 rpm, in the dark for 5 days (120 hours). The cultures were inoculated at the same cell density.

Chlorella sp. HS26 = settings: for Cell Dry Weight of Chlorella: 2.4 g/L
Procedure: This experiment was conducted to determine the effect of different culture medium pH levels on the growth of Chlorella sp. HS26 at a constant culture medium acetate concentration. Duplicate 100 ml flasks of axenic cultures of Chlorella were adjusted to initial pH levels of 2.5, 3.5, 4.5, 5.5, 6.5, 7.0, 7.5, 8.5, 9.5, and 10.5. The culture pH was adjusted using either hydrochloric acid (HCl) or sodium hydroxide (NaOH). […] Samples of the flask culture were taken initially and every other day over a six day period (144 hours).

SMILES: CC(=O)[O-].[Na+] [Sodium Acetate, sodium acetate]
- Cell Dry Weight of Aurantiochytrium ([1]; sodium acetate 5 g/L, 40 h): 8.13 g/L
- Cell Dry Weight of Aurantiochytrium ([1]; sodium acetate 5 g/L, 72 h): 7.49 g/L
- Cell Dry Weight of Aurantiochytrium ([1]; sodium acetate 5 g/L, 96 h): 7.38 g/L
- Cell Dry Weight of Aurantiochytrium ([1]; sodium acetate 5 g/L, 120 h): 7.6 g/L
- Cell Dry Weight of Aurantiochytrium ([1]; sodium acetate 10 g/L, 0 h): 2.7 g/L
- Cell Dry Weight of Aurantiochytrium ([1]; sodium acetate 10 g/L, 24 h): 8.29 g/L
- Cell Dry Weight of Aurantiochytrium ([1]; sodium acetate 10 g/L, 40 h): 9.69 g/L
- Cell Dry Weight of Aurantiochytrium ([1]; sodium acetate 10 g/L, 72 h): 10.35 g/L
- Cell Dry Weight of Aurantiochytrium ([1]; sodium acetate 10 g/L, 96 h): 10 g/L
- Cell Dry Weight of Aurantiochytrium ([1]; sodium acetate 10 g/L, 120 h): 10.9 g/L
- Cell Dry Weight of Aurantiochytrium ([1]; sodium acetate 20 g/L, 0 h): 2.7 g/L
- Cell Dry Weight of Aurantiochytrium ([1]; sodium acetate 20 g/L, 24 h): 7.35 g/L
- Cell Dry Weight of Aurantiochytrium ([1]; sodium acetate 20 g/L, 40 h): 10.45 g/L
- Cell Dry Weight of Aurantiochytrium ([1]; sodium acetate 20 g/L, 72 h): 13.7 g/L
- Cell Dry Weight of Aurantiochytrium ([1]; sodium acetate 20 g/L, 96 h): 13.11 g/L
- Cell Dry Weight of Aurantiochytrium ([1]; sodium acetate 20 g/L, 120 h): 13.55 g/L
- Cell Dry Weight of Aurantiochytrium ([1]; sodium acetate 40 g/L, 0 h): 2.7 g/L
- Cell Dry Weight of Aurantiochytrium ([1]; sodium acetate 40 g/L, 24 h): 7.06 g/L
- Cell Dry Weight of Aurantiochytrium ([1]; sodium acetate 40 g/L, 40 h): 11.84 g/L
- Cell Dry Weight of Aurantiochytrium ([1]; sodium acetate 40 g/L, 72 h): 15.78 g/L
- Cell Dry Weight of Aurantiochytrium ([1]; sodium acetate 40 g/L, 96 h): 18.9 g/L
- Cell Dry Weight of Aurantiochytrium ([1]; sodium acetate 40 g/L, 120 h): 19.65 g/L
- Cell Dry Weight of Aurantiochytrium ([1]; sodium acetate 100 g/L, 0 h): 2.7 g/L
- Cell Dry Weight of Aurantiochytrium ([1]; sodium acetate 100 g/L, 24 h): 1.7 g/L
- Cell Dry Weight of Aurantiochytrium ([1]; sodium acetate 100 g/L, 40 h): 0.7 g/L
- acetate concentration tolerance ([1]; sodium acetate in the culture, pH 7.0): around 100 g/L
- cell dry weight over time (Chlorella sp. HS26; 2.4 g/L sodium acetate, pH of 5.5 or lower): did not increase over time
- Cell Dry Weight of Chlorella (Chlorella sp. HS26; initial pH 2.5, 0 h): 0.6 g/L
- Cell Dry Weight of Chlorella (Chlorella sp. HS26; initial pH 2.5, 24 h): 0.5 g/L
- Cell Dry Weight of Chlorella (Chlorella sp. HS26; initial pH 2.5, 48 h): 0.5 g/L
- Cell Dry Weight of Chlorella (Chlorella sp. HS26; initial pH 3.5, 0 h): 0.6 g/L
- Cell Dry Weight of Chlorella (Chlorella sp. HS26; initial pH 3.5, 24 h): 0.5 g/L
- Cell Dry Weight of Chlorella (Chlorella sp. HS26; initial pH 3.5, 48 h): 0.5 g/L
- Cell Dry Weight of Chlorella (Chlorella sp. HS26; initial pH 4.5, 0 h): 0.6 g/L
- Cell Dry Weight of Chlorella (Chlorella sp. HS26; initial pH 4.5, 24 h): 0.5 g/L
- Cell Dry Weight of Chlorella (Chlorella sp. HS26; initial pH 4.5, 48 h): 0.4 g/L
- Cell Dry Weight of Chlorella (Chlorella sp. HS26; initial pH 5.5, 0 h): 0.6 g/L
- Cell Dry Weight of Chlorella (Chlorella sp. HS26; initial pH 5.5, 24 h): 0.6 g/L
- Cell Dry Weight of Chlorella (Chlorella sp. HS26; initial pH 5.5, 48 h): 0.6 g/L
- Cell Dry Weight of Chlorella (Chlorella sp. HS26; initial pH 5.5, 96 h): 0.4 g/L
- Cell Dry Weight of Chlorella (Chlorella sp. HS26; initial pH 6.5, 0 h): 0.6 g/L
- Cell Dry Weight of Chlorella (Chlorella sp. HS26; initial pH 6.5, 24 h): 0.8 g/L
- Cell Dry Weight of Chlorella (Chlorella sp. HS26; initial pH 6.5, 48 h): 1.8 g/L
- Cell Dry Weight of Chlorella (Chlorella sp. HS26; initial pH 6.5, 96 h): 4.3 g/L
- Cell Dry Weight of Chlorella (Chlorella sp. HS26; initial pH 6.5, 144 h): 6.0 g/L
- Cell Dry Weight of Chlorella (Chlorella sp. HS26; initial pH 7.5, 0 h): 0.6 g/L
- Cell Dry Weight of Chlorella (Chlorella sp. HS26; initial pH 7.5, 24 h): 0.6 g/L
- Cell Dry Weight of Chlorella (Chlorella sp. HS26; initial pH 7.5, 48 h): 1.7 g/L
- Cell Dry Weight of Chlorella (Chlorella sp. HS26; initial pH 7.5, 96 h): 4.4 g/L
- Cell Dry Weight of Chlorella (Chlorella sp. HS26; initial pH 7.5, 144 h): 6.0 g/L
- Cell Dry Weight of Chlorella (Chlorella sp. HS26; initial pH 8.5, 0 h): 0.6 g/L
- Cell Dry Weight of Chlorella (Chlorella sp. HS26; initial pH 8.5, 24 h): 0.8 g/L
- Cell Dry Weight of Chlorella (Chlorella sp. HS26; initial pH 8.5, 48 h): 2.4 g/L
- Cell Dry Weight of Chlorella (Chlorella sp. HS26; initial pH 8.5, 96 h): 4.2 g/L
- Cell Dry Weight of Chlorella (Chlorella sp. HS26; initial pH 8.5, 144 h): 6.0 g/L
- Cell Dry Weight of Chlorella (Chlorella sp. HS26; initial pH 9.5, 0 h): 0.6 g/L
- Cell Dry Weight of Chlorella (Chlorella sp. HS26; initial pH 9.5, 24 h): 0.8 g/L
- Cell Dry Weight of Chlorella (Chlorella sp. HS26; initial pH 9.5, 48 h): 1.2 g/L
- Cell Dry Weight of Chlorella (Chlorella sp. HS26; initial pH 9.5, 96 h): 4.3 g/L
- Cell Dry Weight of Chlorella (Chlorella sp. HS26; initial pH 9.5, 144 h): 6.1 g/L
- Cell Dry Weight of Chlorella (Chlorella sp. HS26; initial pH 10.5, 0 h): 0.6 g/L
- Cell Dry Weight of Chlorella (Chlorella sp. HS26; initial pH 10.5, 24 h): 0.9 g/L
- Cell Dry Weight of Chlorella (Chlorella sp. HS26; initial pH 10.5, 48 h): 1.4 g/L
- Cell Dry Weight of Chlorella (Chlorella sp. HS26; initial pH 10.5, 96 h): 4.3 g/L
- Cell Dry Weight of Chlorella (Chlorella sp. HS26; initial pH 10.5, 144 h): 6.1 g/L

Source: US20210284952A1, “METHODS OF APPLYING ACETATE TOXICITY AND INDUCING ACETATE UPTAKE IN MICROALGAE CULTURES” (HELIAE DEVELOPMENT LLC, priority 2016, published 2021)
